“Also recorded” adds a separate entry of the source.
How the values were obtained:
WVK rat model = experiment: Warfarin and vitamin K (WVK) rat model of aortic calcification; format: in vivo
Method: Animal experiments were approved by the Animal Care and Use Committee of Laval and Montreal Universities. Male Wistar rats (initial weight 200 g) were obtained from Charles River Breeding Laboratories (St Constant, Qc, Canada). The animals received warfarin (20 mg/kg/day in drinking water) and vitamin K (phylloquinone) (15 mg/kg/day subcutaneous injection) (WVK) (n=10) at day 1, 3, 5, 7, 14, 21, and 28. Dosages were adjusted every second day. Controls consisted of age-matched untreated rats (n=7). In two other groups of rats, ARL 67156 was administered at 0.55 μg/kg/day (n=10) and 1.1 μg/kg/day (n=10) during 28 days with osmotic pumps implanted subcutaneously. At day 28, animals were anesthetized with pentobarbital (65 mg/kg) for blood plasma sampling and the harvesting of aorta and heart. Segments of the aorta were frozen at −80° C. for the determination of calcium amount. The heart with the aortic root and valve was fixed in formaldehyde 10% for histological processing and immunohistology. […] Morphometric analyses of the aortic root (at the level of aortic valve and sinuses of Valsalva) were carried out using the Image-Pro Plus (MediaCybernetics, Bethesda, Md., USA) image analysis software to quantify the calcified areas (with the von Kossa staining) normalized to the total surface area of the section.

[1] = test system: Human valve interstitial cells (VICs); experiment: In vitro calcification of valve interstitial cells (calcium content, o-cresolphthalein complexone method); format: cell-based; conditions: day 14 after treatment with calcifying medium; ARL 67156 10 μM and 25 μM
Method: (§1) Human valve interstitial cells (VICs) were isolated by collagenase digestion from explanted hearts during transplant procedures. Cells were cultured in DMEM containing 10% FBS, 2 mM L-glutamine and 1 mM sodium pyruvate (Invitrogen, Toronto, Ont, Canada). Cells were seeded in 12 well plates (2×10^4 cells/well). To provoke calcification, cells were incubated with a pro-calcifying medium containing: DMEM+5% FBS, 10^−7 M insulin, 50 μg/ml ascorbic acid and NaH2PO4 at 2 mM (in some experiments where it is specified NaH2PO4 was used at 1, 2 and 5 mM). […] In some experiments ARL 67156 (a competitive inhibitor of ENPP-1) (10 μM and 25 μM) was added to the growth medium Studies were conducted at day 0, 7, 14 in triplicate. For calcium quantification, cells were decalcified with 0.6 M HCl for 24 h. The calcium content of the HCl supernatants was determined using the o-cresolphthalein complexone method. After decalcification, cells were washed with PBS and solubilised with 0.1 N NaOH/0.1% SDS. The protein content was determined using Biorad® assay kit (Biorad, Mississauga, Ont, Canada). Cells calcium content was normalized to protein content.

ENPP-1 = target: T1, ENPP-1 (Homo sapiens, UniProt P22413); experiment: Phosphodiesterase activity in valve interstitial cells exposed to calcifying medium; format: cell-based; conditions: VICs, calcifying medium (NaH2PO4 2 mM), 14 days; ARL 67156 10 μM and 25 μM
T1 construct: endogenous in cells; host or cells: primary human valve interstitial cells (VICs)
T1 sequence (P22413 1-925): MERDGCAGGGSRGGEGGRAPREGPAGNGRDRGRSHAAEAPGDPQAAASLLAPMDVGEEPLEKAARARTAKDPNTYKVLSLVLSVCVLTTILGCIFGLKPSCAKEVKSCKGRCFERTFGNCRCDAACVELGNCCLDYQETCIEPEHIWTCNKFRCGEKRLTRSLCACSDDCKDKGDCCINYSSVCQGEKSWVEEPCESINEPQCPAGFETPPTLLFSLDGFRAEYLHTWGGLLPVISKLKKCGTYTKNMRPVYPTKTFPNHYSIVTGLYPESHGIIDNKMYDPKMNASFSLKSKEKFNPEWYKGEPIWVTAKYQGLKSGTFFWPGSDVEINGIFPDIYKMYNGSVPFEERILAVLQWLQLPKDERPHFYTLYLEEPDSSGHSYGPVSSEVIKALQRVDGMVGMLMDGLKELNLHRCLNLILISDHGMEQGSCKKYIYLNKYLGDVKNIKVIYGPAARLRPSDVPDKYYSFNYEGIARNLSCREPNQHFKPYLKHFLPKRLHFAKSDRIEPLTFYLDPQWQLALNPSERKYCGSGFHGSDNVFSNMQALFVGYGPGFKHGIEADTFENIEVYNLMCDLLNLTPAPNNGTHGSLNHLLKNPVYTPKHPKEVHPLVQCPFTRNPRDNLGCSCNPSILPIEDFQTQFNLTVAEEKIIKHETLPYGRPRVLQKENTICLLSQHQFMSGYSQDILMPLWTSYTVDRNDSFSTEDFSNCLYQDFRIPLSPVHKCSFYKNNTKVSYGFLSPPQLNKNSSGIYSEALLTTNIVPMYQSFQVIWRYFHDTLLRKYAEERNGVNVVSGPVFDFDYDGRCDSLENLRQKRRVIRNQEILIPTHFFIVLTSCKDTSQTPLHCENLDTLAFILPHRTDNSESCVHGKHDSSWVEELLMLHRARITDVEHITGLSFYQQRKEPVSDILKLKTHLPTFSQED
Method: Phosphodiesterase activity was measured using the substrate p-nitrophenyl phenylphosphonate (PNPP-PP) (Sigma, Oakville, Ont, Canada). Proteins were isolated from normal control valves (n=14), AS valves (n=18) or valve interstitial cells (VICs) and used for enzyme activity. Cells were harvested with trypsine-EDTA (Invitrogen, Toronto, Ont, Canada), washed 2 times in washing buffer (NaCl 0.15M, TRIS-HCl pH 8.1, 20 mM, CaCl2 1 mM) and resuspended in assay buffer (NaCl 0.15M, TRIS-HCl pH 8.1, 20 mM, CaCl2 0.5 mM, 1 mM p-nitrophenyl phenylphosphonate). The same amount of proteins isolated from tissues were washed twice in washing buffer and resuspended in 600 μl of assay buffer. […] Absorbance was measured at 400 nm. Results were calculated using a molar absorption coefficient for p-nitrophenol of 18320 M^−1 cm^−1. […]
Human valve interstitial cells (VICs) were isolated by collagenase digestion from explanted hearts during transplant procedures. […] For calcium quantification, cells were decalcified with 0.6 M HCl for 24 h. The calcium content of the HCl supernatants was determined using the o-cresolphthalein complexone method. […] The protein content was determined using Biorad® assay kit (Biorad, Mississauga, Ont, Canada). […]

alkaline phosphatase = experiment: Alkaline phosphatase activity in valve interstitial cells exposed to calcifying medium; format: cell-based, human; conditions: VICs after exposition to calcifying medium
Method: as §1

## CCN(CC)c1ncnc2c1ncn2C1OC(COP(=O)(O)OP(=O)(O)C(Br)(Br)P(=O)(O)O)[C@@H](O)[C@H]1O (some centres unmarked) [ARL 67156]
WVK rat model; rat treated with 1.1 μg/kg/d, von Kossa histology (FIG. 5F)
  calcification of the aortic root at the level of aortic cusp: without calcification
WVK rat model; rats under WVK regimen, 28 days, 0.55 μg/kg/d and 1.1 μg/kg/d by osmotic pump
  calcification of the aortic valve cusps: prevented the development of aortic valve calcifications; also recorded: not detected
[1]
  calcification of isolated VICs: significantly reduced; also recorded: dose-dependently reduced
ENPP-1
  phosphodiesterase activity: dose-dependently decreased; also recorded: significantly reduced
Alkaline phosphatase
  alkaline phosphatase (ALP) activity: did not affect; also recorded: not affected
